We go through 37 molecules from patent publication US12516016B2, “GPX4 inhibitors, pharmaceutical compositions thereof, and their use for treating GPX4-mediated diseases” (EUBULUS BIOTHERAPEUTICS (HONG KONG) LIMITED, priority 2020, dated 2026).

SMILES strings stand for the structures. Where only a bound is given, the exact number is not on record here.

The subject of the test is hepatocellular carcinoma cell line Hub-7. Description: Cell proliferation assay (CELL-TITER GLO cell viability). In kind it is cell-based. As to conditions: 24 h, Hub-7 cells, 24 h incubation, read-out: Inhibition of Cell Proliferation EC50. The method, then: The activity of a test compound was determined in a cell proliferation assay using the hepatocellular carcinoma cell line […]. Cells (4,000 cells per well) were seeded in a 96-well tissue culture plate. After incubated overnight, a test compound was added at predetermined concentrations, starting with 10 μM and followed by 3-fold serial dilution. After the cells were incubated for 24 h, cell viability was determined using a CELL-TITER GLO® assay. The CELL-TITER GLO® reagent (50 μL) was added to each well and the luminescence was measured by a multimode microplate reader after a brief period of shaking. EC50 values were determined for the test compound. The results are summarized in Table 1, wherein A represents a value no greater than 100 nM, B represents a value greater than 100 nM but no greater than 500 nM, C represents a value greater than 500 nM but no greater than 2 μM, D represents a value greater than 2 μM but no greater than 10 μM; and E represents a value greater than 10 μM.

Turning to `C#CC(=O)N(c1ccc2c(cnn2C)c1)C1(C(=O)NCc2ccccc2)CCCOC1` (stereo not shown) [A176, N-Benzyl-3-(N-(1-methyl-1H-indazol-5-yl)propiolamido)tetrahydro-2H-pyran-3-carboxamide], the EC50 was not above 0.1 µM.

Consider `C=CC(=O)N(c1cccc(Cl)c1)C1(C(=O)NCc2ccccc2)CCOCC1` [B5, N-Benzyl-4-(N-(3-chlorophenyl)acrylamido)tetrahydro-2H-pyran-4-carboxamide], for which the EC50 is more than 10 µM.

Regarding `C[Si](C)(C)C#CC(=O)N(c1cccc(Cl)c1)C1(C(=O)NCc2cccc(Cl)c2)CCOCC1` [A195, N-(3-Chlorobenzyl)-4-(N-(3-chlorophenyl)-3-(trimethylsilyl)propiolamido)-tetrahydro-2H-pyran-4-carboxamide], the EC50 is not above 0.1 µM. On to `C#CC(=O)N(c1ccc(S(C)(=O)=O)cc1)C(C(=O)NC(C)(C)C)c1ccc(N)cc1` (stereo not shown) [A15, N-(1-(4-Aminophenyl)-2-(tert-butylamino)-2-oxoethyl)-N-(4-(methylsulfonyl)-phenyl)propiolamide], for which the EC50 was in the range of 2 to 10 µM. `CC#CC(=O)N(c1ccc2c(cnn2C)c1)C1(C(=O)NCc2ccccc2)CCOCC1` [A125, N-Benzyl-4-(N-(1-methyl-1H-indazol-5-yl)but-2-ynamido)tetrahydro-2H-pyran-4-carboxamide]: the EC50 is more than 10 µM.

In the case of `C#CC(=O)N(c1ccc2ncsc2c1)C(C(=O)NCc1ccccc1)c1ccccc1` (stereo not shown) [A98, N-(Benzo[d]thiazol-6-yl)-N-(2-(benzylamino)-2-oxo-1-phenylethyl)-propiolamide], the EC50 lay in the range of 0.1 to 0.5 µM. As to `C#CC(=O)N(c1ccc(O)cc1)C(C(=O)NC(C)(C)C)c1cccc(N)c1` (stereo not shown) [A27, N-(1-(3-Aminophenyl)-2-(tert-butylamino)-2-oxoethyl)-N-(4-hydroxyphenyl)-propiolamide], the EC50 lay within 2 to 10 µM.

In the case of `CC(=O)N(c1ccc2c(cnn2C)c1)C1(C(=O)NCc2ccccc2)CCCOC1` (stereo not shown) [D2, N-Benzyl-3-(N-(1-methyl-1H-indazol-5-yl)acetamido)tetrahydro-2H-pyran-3-carboxamide], the EC50 was more than 10 µM. To `C#CC(=O)N(c1ccc2ncn(C)c2c1)C1(C(=O)NCc2ccccc2)CCOCC1` [A154, N-Benzyl-4-(N-(1-methyl-1H-benzo[d]imidazol-6-yl)propiolamido)tetrahydro-2H-pyran-4-carboxamide] belongs 0.5 to 2 µM; to `C#CC(=O)N(C1(C(=O)NCc2ccccc2)CCOCC1)C1(c2ccccc2)CC1` [A144, N-Benzyl-4-(N-(1-phenylcyclopropyl)propiolamido)tetrahydro-2H-pyran-4-carboxamide], not above 0.1 µM.

In the case of `O=C(NCCc1ccccc1)C(c1ccc([N+](=O)[O-])cc1)N(C(=O)CCl)c1cccc(O)c1` (stereo not shown) [C9, 2-Chloro-N-(3-hydroxyphenyl)-N-(1-(4-nitrophenyl)-2-oxo-2-(phenethylamino)-ethyl)acetamide], the EC50 lay in the range of 2 to 10 µM. The result for `C#CC(=O)N(c1ccc(OC)c(Cl)c1)C(C(=O)NCc1ccccc1)c1ccccc1` (stereo not shown) [A93, N-(2-(Benzylamino)-2-oxo-1-phenylethyl)-N-(3-chloro-4-methoxyphenyl)-propiolamide] reads not above 0.1 µM; that for `Cn1ncc2cc(N(C(=O)C3CO3)C3(C(=O)NCc4ccccc4)CCOCC3)ccc21` (stereo not shown) [C30, N-Benzyl-4-(N-(1-methyl-1H-indazol-5-yl)oxirane-2-carboxamido)tetrahydro-2H-pyran-4-carboxamide], more than 10 µM. To `C#CC(=O)N(c1cccc2nonc12)C(C(=O)NCc1ccccc1)c1ccccc1` (stereo not shown) [A106, N-(Benzo[c][1,2,5]oxadiazol-4-yl)-N-(2-(benzylamino)-2-oxo-1-phenylethyl)-propiolamide] belongs 0.1 to 0.5 µM; to `C#CC(=O)N(c1ccn2cnnc2c1)C1(C(=O)NCc2ccccc2)CCOCC1` [A163, 4-(N-([1,2,4]Triazolo[4,3-a]pyridin-7-yl)propiolamido)-N-benzyltetrahydro-2H-pyran-4-carboxamide], 0.5 to 2 µM; to `C#CC(=O)N(c1cccc(F)c1)C(C(=O)NCc1ccccc1)c1cccc(N)c1` (stereo not shown) [A43, N-(1-(3-Aminophenyl)-2-(benzylamino)-2-oxoethyl)-N-(3-fluorophenyl)-propiolamide], 0.1 to 0.5 µM.

In the case of `C#CC(=O)N(c1ccc(NC(C)=O)cc1)C(C(=O)NC(C)(C)C)c1ccc(N)cc1` (stereo not shown) [A13, N-(4-Acetamidophenyl)-N-(1-(4-aminophenyl)-2-(tert-butylamino)-2-oxoethyl)-propiolamide], the EC50 fell in the range of 2 to 10 µM. The result for `C#CC(=O)N(c1cccc2c1CCC2=O)C(C(=O)NCc1ccccc1)c1ccccc1` (stereo not shown) [A89, N-(2-(Benzylamino)-2-oxo-1-phenylethyl)-N-(1-oxo-2,3-dihydro-1H-inden-4-yl)propiolamide] reads not above 0.1 µM; that for `C#CC(=O)N(c1cccc(Cl)c1)C1(C(=O)NCc2ccccc2)COC1` [A86, N-Benzyl-3-(N-(3-chlorophenyl)propiolamido)oxetane-3-carboxamide], 0.1 to 0.5 µM; that for `C#CC(=O)N(c1ccc(S(N)(=O)=O)cc1)C(C(=O)NC(C)(C)C)c1ccc(N)cc1` (stereo not shown) [A11, N-(1-(4-Aminophenyl)-2-(tert-butylamino)-2-oxoethyl)-N-(4-sulfamoylphenyl)-propiolamide], more than 10 µM. To `CC#CC(=O)N(c1ccc2c(cnn2C)c1)C1(C(=O)NCc2ccccc2)CCCC(C(=O)OC)C1` (stereo not shown) [A127, Methyl3-(benzylcarbamoyl)-3-(N-(1-methyl-1H-indazol-5-yl)but-2-ynamido)-cyclohexane-1-carboxylate] belongs more than 10 µM; to `C=CC(=O)N(CCc1ccccc1)C1(C(=O)NCc2ccccc2)CCOCC1` [B6, N-Benzyl-4-(N-phenethylacrylamido)tetrahydro-2H-pyran-4-carboxamide], more than 10 µM; to `C#CC(=O)N(c1cccc(C(=O)OC)c1)C(C(=O)NCc1ccccc1)c1ccccc1` (stereo not shown) [A76, Methyl 3-(N-(2-(benzylamino)-2-oxo-1-phenylethyl)propiolamido)benzoate], not above 0.1 µM. To `C#CC(=O)N(c1cccc(Cl)c1)C1(C(=O)NCS(=O)(=O)c2ccc(C)cc2)CCOCC1` [A159, 4-(N-(3-Chlorophenyl)propiolamido)-N-(tosylmethyl)tetrahydro-2H-pyran-4-carboxamide] belongs 0.5 to 2 µM. For the molecule `C#CC(=O)N(c1ccc(CO)cc1)C(C(=O)NCc1ccccc1)c1ccc(N)cc1` (stereo not shown) [A67, N-(1-(4-Aminophenyl)-2-(benzylamino)-2-oxoethyl)-N-(4-(hydroxymethyl)-phenyl)propiolamide], the EC50 lay in the range of 0.5 to 2 µM.

For `C#CC(=O)N(c1cccc(Cl)c1F)C(C(=O)NCc1ccccc1)c1ccc(N)cc1` (stereo not shown) [A123], the EC50 is not above 0.1 µM. Consider `C#CC(=O)N(c1cccc(Cl)c1)C(C(=O)NCc1ccccc1)c1cccc(CCO)c1` (stereo not shown) [A95, N-(2-(Benzylamino)-1-(3-(2-hydroxyethyl)phenyl)-2-oxoethyl)-N-(3-chloro-phenyl)propiolamide], for which the EC50 lay in the range of 0.1 to 0.5 µM. The result for `N#CCC(=O)N(c1cccc(Cl)c1)C1(C(=O)NCc2ccccc2)CCOCC1` [D7, N-Benzyl-4-(N-(3-chlorophenyl)-2-cyanoacetamido)tetrahydro-2H-pyran-4-carboxamide] reads more than 10 µM; that for `C#CC(=O)N(Cc1cccc(O)c1)C1(C(=O)NCc2ccccc2)CCCC(C(=O)O)C1` (stereo not shown) [A170, 3-(Benzylcarbamoyl)-3-(N-(3-hydroxybenzyl)propiolamido)cyclohexane-1-carboxylic acid], more than 10 µM; that for `C#CC(=O)N(c1ccc2cnn(C)c2c1)C(C(=O)NCc1ccccc1)c1ccccc1` (stereo not shown) [A104, N-(2-(Benzylamino)-2-oxo-1-phenylethyl)-N-(1-methyl-1H-indazol-6-yl)-propiolamide], not above 0.1 µM. `C#CC(=O)N(c1cccc(Cl)c1)C1(C(=O)NCC(=O)NCc2ccccc2)CCOCC1` [A188, N-(2-(Benzylamino)-2-oxoethyl)-4-(N-(3-chlorophenyl)propiolamido)tetrahydro-2H-pyran-4-carboxamide]: the EC50 is 0.1 to 0.5 µM. `C#CC(=O)N(c1cccc(NC(C)=O)c1)C(C(=O)NCc1ccccc1)c1cccc(N)c1` (stereo not shown) [A44, N-(3-Acetamidophenyl)-N-(1-(3-aminophenyl)-2-(benzylamino)-2-oxoethyl)-propiolamide]: the EC50 is 2 to 10 µM. The result for `C#CC(=O)N(c1cccc(Cl)c1)C(C(=O)NCc1ccccc1)c1ccc(F)cc1` (stereo not shown) [A87, N-(2-(Benzylamino)-1-(4-fluorophenyl)-2-oxoethyl)-N-(3-chlorophenyl)-propiolamide] reads not above 0.1 µM; that for `C#CC(=O)N(c1cccc2nsnc12)C(C(=O)NCc1ccccc1)c1ccccc1` (stereo not shown) [A85, N-(Benzo[c][1,2,5]thiadiazol-4-yl)-N-(2-(benzylamino)-2-oxo-1-phenylethyl)-propiolamide], not above 0.1 µM. Regarding `C#CC(=O)N(CCc1ccccc1)C1(C(=O)NCc2ccccc2)CCCC(C(=O)O)C1` (stereo not shown) [A169, 3-(Benzylcarbamoyl)-3-(N-phenethylpropiolamido)cyclohexane-1-carboxylic acid], the EC50 is more than 10 µM. To `O=C(C#CCO)N(c1cccc(Cl)c1)C1(C(=O)NCc2ccccc2)CCOCC1` [A129, N-Benzyl-4-(N-(3-chlorophenyl)-4-hydroxybut-2-ynamido)tetrahydro-2H-pyran-4-carboxamide] belongs more than 10 µM; to `C#CC(=O)N(c1cccc(Cl)c1)C(C(=O)NCc1ccccc1)c1cccc(OCC(=O)OC)c1` (stereo not shown) [A83, Methyl 2-(3-(2-(benzylamino)-1-(N-(3-chlorophenyl)propiolamido)-2-oxoethyl)-phenoxy)acetate], 0.1 to 0.5 µM.
